{"source": "patent US7524512B2", "about": "“Composition and method for the prevention and relief of the symptoms of an incompetent or patulous Eustachian tube” (priority 2007, dated 2009)", "key": {"[1]": {"system": "patulous Eustachian tube syndrome", "test": "Selected case studies: nose drops in patients with patulous / semi-patulous Eustachian tube syndrome", "type": "in vivo, human", "description": "In an exemplary first administration protocol, the composition is administered in the form of nose drops, the patient sniffs them through the ipsilateral nostril on the side of the symptomatic ear affected with the disorder. The number of drops administered can be titrated to the needs of the individual patient. The patient can sniff from two to four drops of the solution, and the drops are sniffed back into the nostril so as to deliver the medication to the Eustachian tube opening in the back of the nose. Administration of the drops may be repeated again in four to six hours. As desired, the daily dose maybe increased to 4 drops per administration.\nAn exemplary nasal drop administration protocol has been developed for the first exemplary embodiment. To achieve normal closure of the lumen, 2-6 drops of the nasal supplement solution are applied to the stoma or opening of the Eustachian tube. It may take two weeks before changes in symptoms become apparent.\nReferring to the illustrations in FIGS. 1 and 2 for reference, after the patient been up for a period of time, symptoms begin as the tubal tissues lose fluid and the lumen increases. When the patient feels the symptom of autophony is about to occur, gently blowing the nose to clear any mucous is accomplished.\nWith the patient 10 lying with head 12 between 45 to 60 degrees above horizontal. This places the Eustachian tube stoma (opening) lower than the nostril 16. Gravity will allow the drops to flow to the back of the nose. Sniffing will draw the drops further info the nasal passage to the Eustachian tube before the semi-permiable membrane lining of the nasal passage can absorb them. Alternatively while sitting in a chair, the head is tilted back at approximately 45 degrees and then tilted toward the affected ear to place it almost below the nose.\nFor nasal administration, to instill the drops, put the dropper tip one-quarter inch (¼″) into the lower nostril (affected side), closest to the symptomatic ear.\nInstill 2-4 drops depending on individual anatomy. Sniffing briskly to draws the drops back approximately three inches (3″) to the location of the tube opening where they will be absorbed. The patient may feel a brief burning or stinging sensation when the drops are administered properly to stimulate the closure of the stoma of the tube. The patient then remains lying down in the administering position for ten (10) seconds."}, "[2]": {"system": "otitis media / middle ear infection", "test": "Case studies: treatment of otitis media, otitis media with effusion and middle ear infection", "type": "in vivo, human", "description": "Modification of the composition and methods of treatment for otitis media (OM) and otitis media with effusion (OME) due to inflammatory disease of the middle ear epithelium, structures and specialized membranous tissues is described below. The inflammatory diseases of the middle ear and biofilm are treated herein treated by the following methods. The composition is preferably delivered through the natural opening at the nasopharyngeal orifice of the eustachian tube leading to the middle ear chamber. If this is not possible, a needle or myringotomy incision in made in the tympanic membrane (ear drum) via the external ear canal for the delivery of the embodiment, with or without a device, into the middle ear to chamber. The chamber is irrigated and the biofilm flushed by the exemplary embodiment of the composition delivered as described above.\nIn otitis media, the solution is topically applied to the Eustachian Tube mucosa in appropriate dosage forms for administration or delivered to the middle ear chamber by delivery through the stoma of the Eustachian Tube in the form of nasal drops, spray, aerosol, rinse, douche or gel. The delivery system may include the modified Politzer technique or catheter insufflation of the middle ear.\nIf the middle ear chamber is not easily accessible through its natural eustachian tubal stoma, the chamber can be reached directly by surgically penetrating or making an incision in the tympanic membrane of the lateral wall of the middle ear, as in a myringotomy.\nIn this way, the contaminated middle ear fluid, micro-organisms and biofilm adhesins seen in OME may be degraded and removed by a paracentesis (needle)or myringotomy (scalpel) incision of the tympanic membrane with aspiration of the fluid, under direct visualization. The middle ear fluids and debris are degraded and flushed out by rinsing with the composition of the exemplary embodiment delivered through the acquired opening into the middle ear chamber, in the form of nasal drops, spray, aerosol, rinse, douche, irrigation or gel. The composition, L-Ascorbic acid, in about 4% to 10% wt/vol in an aqueous solution, is employed through a surgically made incision or acquired defect in the tympanic membrane of the middle ear for the optimal characteristics or effects to reestablish Eustachian luminal patency, restore the rheologic properties of the membranous lining, to breakdown and eliminate the contained microorganisms, biofilm or abiotic toxins adhering to the membranes and coating any implanted device in the middle ear, to normalize surface tension and passive closing pressure, facilitating mucociliary clearance through the restored Eustachian tube orifice into the nasopharynx. The products are then swallowed and arrive in the stomach, where the endogenous enzymes and HCL of the stomach inactivate and digest and any residual microorganisms or proteinaceous products.\nIf a tympanic membrane rupture has occurred, as a complication or from specific trauma, the method of the delivery of the exemplary embodiment is modified for the maximum therapeutic effect of supporting healing of the damaged tympanic membrane. This is accomplished by the application of solid, porous or absorbable implanted devices or sculptured to the anatomical defect of the tympanic membrane and implanted under direct visualization employing a surgical microscope. A non-porous device or tube may be implanted for the delivery of the novel embodiment. The implanted device serves as a conduit through which the embodiment is administered via the external ear canal on a scheduled program for continuous availability of the composition of the exemplary embodiment to support tissue healing by pre-collagen formation and re-epithelization cardinal to middle ear functions."}, "[3]": {"conditions": "Example A: child, 5% in aqueous saline, topical to nasal mucosa, one month after recovery from upper respiratory infection"}, "[4]": {"conditions": "Example C: person, 5% wt/vol aqueous solution on porous implanted device, daily, after three months"}}, "data": [{"smiles": "O=C1O[C@H]([C@@H](O)CO)C(O)=C1O", "note": "[L-Ascorbic acid]", "values": [{"measurement": "adverse side effects", "setting": "[1]; Example I: person, three drops, 15% wt/vol in distilled water, nose drops", "value": "no adverse side effects were noted"}, {"measurement": "patulous Eustachian tube syndrome (autophony)", "setting": "[1]; Example I: person, three drops, 15% wt/vol in distilled water, sniffed into ipsilateral nostril, repeated six hours later", "value": "completely relieved"}, {"measurement": "autophony symptom of an Incompetent Eustachian Tube", "setting": "[1]; Example II: person, unilateral semi-patulous Eustachian tube syndrome, 20% wt/vol aqueous solution, pH 2.0, 2-4 drops per treatment", "value": "receded completely"}, {"measurement": "adverse side effects", "setting": "[1]; Example II: person, 20% wt/vol aqueous solution, pH 2.0, 2-4 drops", "value": "no adverse side effects"}, {"measurement": "carcinogenic effect from daily administration of nose drops", "setting": "[1]; Example IV: person after nasopharyngeal carcinoma resection, 15% wt/vol aqueous solution, pH 2.1, daily over several years", "value": "no carcinogenic effect"}, {"measurement": "cytology studies of the right Eustachian tube area", "setting": "[1]; Example IV: person, 15% wt/vol aqueous solution, pH 2.1, daily for several years", "value": "free of cancer"}, {"measurement": "relief of PET symptoms", "setting": "[1]; inventor (JD) as subject, two drops, 15% wt/vol. in distilled water, as needed, after one month", "value": "complete symptomatic relief"}, {"measurement": "middle ear pressure", "setting": "[2]; Example A: child, bilateral negative middle ear pressure, 5% in aqueous saline solution, nasal spray, over the next month", "value": "within normal limits"}, {"measurement": "Eustachian Tube function", "setting": "[2]; [3]", "value": "normal"}, {"measurement": "middle ear infection or fluid on examination", "setting": "[2]; [3]", "value": "no evidence of any middle ear infection or fluid"}, {"measurement": "signs of infection", "setting": "[2]; Example B: person, Corynebacterium, 5% wt/vol in physiologic saline, two times a day", "value": "no further signs of infection"}, {"measurement": "middle ear drainage", "setting": "[2]; Example B: person, right middle ear infection (Corynebacterium), 5% wt/vol in physiologic saline, trans canal through the perforation, two times a day, in five days", "value": "completely eliminated"}, {"measurement": "mastoid / middle ear drainage", "setting": "[2]; Example C: person, chronic right mastoiditis, total tympanic membrane perforation, 5% wt/vol aqueous solution on porous implanted device, daily, after three months", "value": "ceased"}, {"measurement": "infection", "setting": "[2]; [4]", "value": "free of infection"}, {"measurement": "right eardrum perforation", "setting": "[2]; [4]", "value": "healed closed"}, {"measurement": "hearing", "setting": "[2]; Example III: child, chronic otitis media with effusion, 4% wt/vol in physiologic saline, metered nasal spray after politzerization, after two weeks", "value": "hearing was restored"}, {"measurement": "adverse side effects", "setting": "[2]; Example III: child, 4% wt/vol in physiologic saline, metered nasal spray", "value": "no adverse side effects"}]}]}
